Source: EP4559898A1, “NOVEL IONIZABLE CATIONIC LIPIDS CONTAINING THIOETHER LINKAGE” (AldexChem Kft., priority 2023, dated 2025)

What was measured:
[1] = Encapsulation efficiency (RiboGreen assay) of mRNA-LNPs; format: physicochemical; settings: mRNA-LNP formulated with tested lipid; RiboGreen with/without Triton X-100
Protocol: 1. Preparation of sample stock solutions: In the top row of the 96-well plate (Row A in the plate), add 297 µL of TE buffer pH 7.4 to a single well for each sample plus a single well for a PBS blank using a multichannel pipette. TE buffer preparation:
2. Add 3 µL of sample (at 0.5mg/ml) to these wells for a final volume of 300 µL. Add 3 µL of PBS to the blank well. Pipette to mix. This is your stock solution for each sample. The final RNA concentration of these stock solutions should be approximately 4-7 µg/mL. 3. mRNA-LNP sample setup: • a. Add 50 µL of TE buffer pH 7.5 to the two wells directly below each sample (Rows B and C in the plate). • b. Add 50 µL of sample stock solution from Row A into the wells in Rows B and C (this assay is run in duplicate. All liquid handling should be done using a multichannel pipette). • c. Add 50 µL of Triton buffer to the wells in Rows D and E (in the plate) below each sample. • d. Add 50 µL of sample stock solution from Row A into the wells in Rows D and E. 4. RiboGreen RNA standard curve setup: Dilute the RNA standard to produce an RNA stock at a final concentration of 20 µg/mL in TE buffer pH 7.4. The final volume should be 150 µL. Set up a standard curve (in duplicate) as using the RNA stock (20 µg/mL siRNA), TE buffer pH 7.5, and Triton X-100 buffer according the Table 2 below. Triton X-100 buffer preparation:
5. Once samples and standard curve are plated, incubate the plate at 37°C for 10 min to lyse mRNA-LNP in the presence of Triton X-100 buffer. 6. Meanwhile, prepare RiboGreen Solution: Sum the total number of sample wells and standard curve wells. Add three to this number, and multiply the total by 100. This is the total volume, in µL, of RiboGreen Solution needed for this assay. In a 15 mL RNAse-free Falcon tube, dilute the RiboGreen Reagent 1:100 into TE buffer pH 7.5 to the total volume calculated. 7. Addition of RiboGreen Solution and sample readings: Remove a 96-well plate from 37°C incubator; let it cool to room temperature as RiboGreen binding is somewhat temperature dependent. Add 100 µL of RiboGreen Solution to each well. Pop any air bubbles with a needle. Read using fluorescent plate reader (excitation = 480, emission = 525). 8. Sample analysis: Use the data generated by the RiboGreen standard curve to calculate the concentration of mRNA.

HeLa = test: Transfection efficiency with Luciferase-mRNA (SecNLuc), Nano-Glo assay; format: cell-based; settings: 24 hours, luminescence (Nano-Glo); for Transfection 10 ng mRNA: 10 ng SecNLuc mRNA/well; for Transfection 50 ng mRNA: 50 ng SecNLuc mRNA/well; for Transfection 100 ng mRNA: 100 ng SecNLuc mRNA/well
Protocol: • 1. Prepare mRNA solution by adding 100 ng mRNA (SecNLuc, #P009024, RiboPro) to 5 µl Opti-MEM • multiply by number of wells, include different concentrations and add 10% extra • a standard set-up we use is 100 ng - 50 ng - 10 ng mRNA/well in triplicate, which would need […] mRNA (includes 10% extra)
• 2. (If applicable) Prepare different concentrations in Opti-MEM (for instance 100/50/10 ng). • 3. Add 10 µl to each well and mix carefully by pipetting. • 4. Mix by swirling the plate horizontally at modest speed. Reverse in direction 3 times. • 5. Incubate for 24 hours (incubator).
This protocol is applied to measure luciferase activity for secreted NanoLuc and is based on the protocol by Promega (Nano-Glo® Luciferase Assay System #N1110-1150). The protocol is designed for a 384-wells plate, but volumes can be changed accordingly for other plates.
• 1. Plate cells (HeLa) in 96-well plate, grow until 80% confluent and transfect with SecNanoLuc mRNA and incubate for the desired period (24h). • 2. After incubation, the translated protein is accumulated in the medium. Transfer medium to a new plate or tubes . • 3. Transfer 12 µl of each sample to a black-walled, clear-bottom 384-well plate Black-walled plates are important to prevent shine-through of luminescence from other wells; alternatively, multiple wells between samples can be left empty. • 4. Set-up plate reader • 5. Prepare the desired amount of Nano-Gio® Luciferase Assay Reagent by combining one volume of Nano-Glo® Luciferase Assay Substrate with 50 volumes of Nano-Glo® Luciferase Assay Buffer: • a. composition: 100 mM MES pH 6; 1 mM EDTA; 0.5% […]; 150 mM KCl; 1 mM DTT; 35 mM Thiourea; • b. briefly spin tubes containing substrate in a microcentrifuge before use. • 6. Add and mix (by pipetting) 12 µl Nano-Glo® Luciferase Assay Reagent per well • Wait approximately 3 minutes before measuring luminescence. The luminescence intensity will decay gradually, with a signal half-life of approximately 120 minutes at room temperature. • 7. Measure luminescence in plate reader using standard protocol luciferase (this includes mixing sample in plate reader)

| SMILES | EE [1] | Transfection 10 ng mRNA (HeLa) | Transfection 50 ng mRNA (HeLa) | Transfection 100 ng mRNA (HeLa) |
| --- | --- | --- | --- | --- |
| CCCCCCCCCCSC(CCCC)C(=O)OCCCCCCCCN(CCCCO)CCCCCCCCOC(=O)C(CCCC)SCCCCCCCCCC (centres unmarked) [Example 3, ((4-hydroxybutyl)azanediyl)bis(octane-8,1-diyl) bis(2-(decylthio)hexanoate)] | 77% | 9,69E+05 | 1,02E+07 | 1,37E+07 |
| CCCCCCCCCCSC(CCCC)C(=O)OCCCCCCN(CCO)CCCCCCOC(=O)C(CCCC)SCCCCCCCCCC (centres unmarked) [Example 4, ((2-hydroxyethyl)azanediyl)bis(hexane-6,1-diyl) bis(2-(decylthio)hexanoate)] | 85% | 2,53E+06 | 1,23E+07 | 8,17E+06 |
| CCCCCCCCCCSC(CCCCCCCC)C(=O)OCCCCCCN(CCCCO)CCCCCCOC(=O)C(CCCCCCCC)SCCCCCCCCCC (centres unmarked) [Example 7, ((4-hydroxybutyl)azanediyl)bis(hexane-6,1-diyl) bis(2-(decylthio)decanoate)] | 92% | 1,62E+06 | 1,47E+07 | 2,01E+07 |
| CCCCCCCCCCSC(CCCCCC)C(=O)OCCCCCCN(CCCCO)CCCCCCOC(=O)C(CCCCCC)SCCCCCCCCCC (centres unmarked) [Example 8, ((4-hydroxybutyl)azanediyl)bis(hexane-6,1-diyl) bis(2-(decylthio)octanoate)] | 86% | 2,80E+06 | 1,36E+07 | 1,11E+07 |

Now from value to molecule, other results behind:

| EE [1] | SMILES | Transfection 10 ng mRNA (HeLa) | Transfection 50 ng mRNA (HeLa) | Transfection 100 ng mRNA (HeLa) |
| --- | --- | --- | --- | --- |
| 94% | CCCCCCCCC(CCCCCC)C(=O)OCCCCCCN(CCCCO)CCCCCCOC(=O)C(CCCCCC)CCCCCCCC (centres unmarked) [ALC-0315 ref., reference compound] | 3,21E+06 | 1.47E+07 | 1,04E+07 |
| 53% | CCCCCCCCCCSC(CCCC)C(=O)OCCCCCCN(CCCCO)CCCCCCOC(=O)C(CCCC)SCCCCCCCCCC (centres unmarked) [Example 1, ((4-hydroxybutyl)azanediyl)bis(hexane-6,1-diyl) bis(2-(decylthio)hexanoate)] | 3,81E+06 | 1,83E+07 | 1,69E+07 |
| 55% | CCCCCCCCC(SCCCCC)C(=O)OCCCCCCN(CCCCO)CCCCCCOC(=O)C(CCCCCCCC)SCCCCC (centres unmarked) [Example 2, ((4-hydroxybutyl)azanediyl)bis(hexane-6,1-diyl) bis(2-(pentylthio)decanoate)] | 2,40E+06 | 1,60E+07 | 1,39E+07 |
| 96% | CCCCCCCCCCSC(CCCC)C(=O)OCCCCCCN(CCCCCCOC(=O)C(CCCC)SCCCCCCCCCC)CCC1CCCN1C (centres unmarked) [Example 5, ((2-(1-methylpyrrolidin-2-yl)ethyl)azanediyl)bis(hexane-6,1-diyl) bis(2-(decylthio)hexanoate)] | 4,17E+05 | 3,34E+06 | 6,52E+06 |
| 90% | CCCCCCCCC(SCCCCCCC)C(=O)OCCCCCCN(CCCCO)CCCCCCOC(=O)C(CCCCCCCC)SCCCCCCC (centres unmarked) [Example 6, ((4-hydroxybutyl)azanediyl)bis(hexane-6,1-diyl) bis(2-(heptylthio)decanoate)] | 3,47E+06 | 1,83E+07 | 2,52E+07 |
| 67% | CCCCCCCSC(CCCCCC)C(=O)OCCCCCCN(CCCCO)CCCCCCOC(=O)C(CCCCCC)SCCCCCCC (centres unmarked) [Example 9, ((4-hydroxybutyl)azanediyl)bis(hexane-6,1-diyl) bis(2-(heptylthio)octanoate)] | 2,79E+06 | 1,36E+07 | 1,43E+07 |
| 83% | CCCCCCCCCCCCCCSCC(=O)OCCCCCCN(CCCCO)CCCCCCOC(=O)CSCCCCCCCCCCCCCC [Example 10, ((4-hydroxybutyl)azanediyl)bis(hexane-6,1-diyl) bis(2-(tetradecylthio)acetate)] | 2,92E+05 | 3,57E+06 | 1,10E+07 |
